The values below come from US20130078351A1, “COMPOUNDS AND METHODS FOR ENHANCING SALTY TASTE” (Monell Chemical Senses Center, priority 2010, published 2013).

In experiment [1] the target is T1, Epithelial Sodium Channel (ENaC) subunits delta/beta/gamma (Homo sapiens, UniProt P51168+P51170+P51172).
T1 construct: expressed in transfected cells; host or cells: Xenopus laevis oocytes injected with cRNA
T1 sequence (P51172 1-802): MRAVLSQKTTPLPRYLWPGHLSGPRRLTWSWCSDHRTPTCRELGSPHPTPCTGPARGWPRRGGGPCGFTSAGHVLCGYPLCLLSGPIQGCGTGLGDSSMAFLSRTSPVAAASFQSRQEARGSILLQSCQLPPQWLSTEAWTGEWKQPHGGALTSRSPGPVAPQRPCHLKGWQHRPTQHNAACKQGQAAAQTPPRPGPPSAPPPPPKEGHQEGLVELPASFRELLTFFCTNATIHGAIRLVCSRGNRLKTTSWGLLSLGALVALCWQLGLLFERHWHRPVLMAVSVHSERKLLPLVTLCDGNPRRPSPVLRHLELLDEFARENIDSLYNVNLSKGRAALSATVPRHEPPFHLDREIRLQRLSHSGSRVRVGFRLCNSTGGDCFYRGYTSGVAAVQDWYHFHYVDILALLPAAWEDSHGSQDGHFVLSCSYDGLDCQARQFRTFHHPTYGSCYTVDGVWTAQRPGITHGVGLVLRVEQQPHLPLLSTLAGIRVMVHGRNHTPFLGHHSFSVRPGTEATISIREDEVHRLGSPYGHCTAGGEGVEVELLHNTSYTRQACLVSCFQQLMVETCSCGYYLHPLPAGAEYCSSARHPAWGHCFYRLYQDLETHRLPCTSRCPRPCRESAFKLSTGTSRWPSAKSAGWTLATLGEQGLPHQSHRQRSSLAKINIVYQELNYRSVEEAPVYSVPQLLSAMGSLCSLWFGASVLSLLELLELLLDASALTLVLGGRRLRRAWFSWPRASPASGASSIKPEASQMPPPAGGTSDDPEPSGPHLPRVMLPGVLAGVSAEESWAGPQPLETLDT
T1 sequence (P51168 1-640): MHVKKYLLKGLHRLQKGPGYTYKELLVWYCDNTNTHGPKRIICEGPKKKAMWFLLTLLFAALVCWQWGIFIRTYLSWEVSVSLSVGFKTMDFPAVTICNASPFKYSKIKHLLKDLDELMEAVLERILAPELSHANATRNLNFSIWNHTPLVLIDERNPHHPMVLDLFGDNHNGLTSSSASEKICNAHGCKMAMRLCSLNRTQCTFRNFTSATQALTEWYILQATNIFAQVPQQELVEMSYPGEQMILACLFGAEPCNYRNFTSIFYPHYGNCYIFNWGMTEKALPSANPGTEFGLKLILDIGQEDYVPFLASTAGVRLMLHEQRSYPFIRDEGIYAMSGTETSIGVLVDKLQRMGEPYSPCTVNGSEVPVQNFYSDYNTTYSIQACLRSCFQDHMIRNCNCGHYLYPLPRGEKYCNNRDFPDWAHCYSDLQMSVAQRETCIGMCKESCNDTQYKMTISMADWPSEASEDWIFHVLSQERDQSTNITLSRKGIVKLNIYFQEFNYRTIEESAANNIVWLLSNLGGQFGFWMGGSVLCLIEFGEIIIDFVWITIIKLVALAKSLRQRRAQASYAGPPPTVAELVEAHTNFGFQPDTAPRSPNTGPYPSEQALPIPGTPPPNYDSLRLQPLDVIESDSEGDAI
T1 sequence (P51170 1-649): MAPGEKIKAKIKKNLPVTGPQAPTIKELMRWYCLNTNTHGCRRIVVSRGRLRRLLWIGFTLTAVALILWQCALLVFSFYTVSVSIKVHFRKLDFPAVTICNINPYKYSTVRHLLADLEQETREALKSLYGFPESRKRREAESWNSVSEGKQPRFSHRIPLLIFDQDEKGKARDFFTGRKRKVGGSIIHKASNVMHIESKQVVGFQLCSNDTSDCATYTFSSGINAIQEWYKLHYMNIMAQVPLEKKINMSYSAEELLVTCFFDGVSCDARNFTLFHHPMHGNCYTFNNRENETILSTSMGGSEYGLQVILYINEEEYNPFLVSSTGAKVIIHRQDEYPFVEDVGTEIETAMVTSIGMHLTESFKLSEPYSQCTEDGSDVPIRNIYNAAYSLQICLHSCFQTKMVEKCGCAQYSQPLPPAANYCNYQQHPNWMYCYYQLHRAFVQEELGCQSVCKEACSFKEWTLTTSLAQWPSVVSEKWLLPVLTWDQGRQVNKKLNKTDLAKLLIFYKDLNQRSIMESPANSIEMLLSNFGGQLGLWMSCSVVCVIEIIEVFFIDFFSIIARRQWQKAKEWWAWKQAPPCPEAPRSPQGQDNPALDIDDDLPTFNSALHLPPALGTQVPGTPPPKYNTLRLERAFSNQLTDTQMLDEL
In words: Testing in Xenopus oocytes expressing ENaC (inward sodium current recording). The conditions noted are these: oocyte expressing delta. In kind it is cell-based. Here is the method: The frog, Xenopus laevis, produces oocytes that are particularly obliging in permitting a foreign gene to be incorporated into its protein translation system. The egg then makes this foreign protein encoded by the injected complimentary RNA (cRNA). Oocytes are harvested when at stage 5 or 6, from female Xenopus and defolliculated (using trypsin) and placed in low sodium culture medium. After overnight culture the egg is injected with the cRNA of the protein(s) of interest.
There is evidence that one of the major “receptors” of salty taste is the ENaC. This channel functions as a heterotrimer, a complex of three different peptides. The transfected eggs are then cultured for 4 to 6 days. Depending upon the endpoint of the study, all three subunits are expressed into one cell or one subunit is expressed per cell. The internal machinery of the cell places the ENaC into the plasma membrane. These preparations can be used as follows: • 1. Two Electrode Voltage Clamp (TEVC) across the entire oocyte is the most direct method for detecting ion flux through the ENaC, but it will respond to any ion movement, making it less desirable for precise analyses, but very useful as an initial screen. • 2. Patch clamp is used to record movement of very few ions through very few channels. […]

The next experiment has as its system human taste. Nature of the experiment: Psychophysical assessment of salty taste enhancing properties. The format is in vivo. Here is the method: 121 subjects participated in this study. They were familiar with the taste of the 5 modalities (sweet, bitter, umami, sour, and salty), and the use of a modality—specific task. Each subject was presented with 5 cups, each having 10 ml of fluid, plus a large amount of water as a rinse before and in between each sampling. Subjects were told to hold the sample in their mouth for several seconds before making a judgment. Subjects sampled and rated all five solutions, then repeated the study. Subjects rated intensity and modality. The samples tested were • 1. 50 mM NaCl • 2. 75 mM NaCl • 3. N-(2-hydroxyethyl)-4-methylpentanamide at 20 ppm • 4. 50mM NaCl plus 20 ppm N-(2-hydroxyethyl)-4-methylpentanamide • 5. 75 mM NaCl plus 20 ppm N-(2-hydroxyethyl)-4-methylpentanamide
The results of this study are depicted in FIG. 1. The X-axis of FIG. 1 provides the identity of the five solutions that were rated and the Y-axis provides the Geometric Mean saltiness intensity ratings. Error bars are Geometric Standard Errors. […] It was slightly bitter tasting with an average bitterness intensity of 3 (data not shown). N-(2-hydroxyethyl)-4-methylpentanamide enhanced the saltiness of 50 mM NaCl by more than 100% and the saltiness of 75 mM NaCl by approximately 35%. Consistency among subjects was high as indicated by the error bars.

On to `CC(C)CCC(=O)NCCO` [N-(2-hydroxyethyl)-4-methylpentanamide], for which, in experiment [1], the “reversibility of inward current” value is listed as “completely reversible”. In addition, the “effect on sodium currents (inward current) in oocytes” value in experiment [1] (successive addition of increasing (nanomolar) concentrations, from baseline state) is given as “enhancement of sodium currents”. Also, the “enhancement of saltiness of 50 mM NaCl” value with human taste (50 mM NaCl plus 20 ppm compound, geometric mean saltiness intensity ratings) is “more than 100%”. Moreover, the “enhancement of saltiness of 75 mM NaCl” value in the experiment on human taste (75 mM NaCl plus 20 ppm compound, geometric mean saltiness intensity ratings) is recorded as “approximately 35%”. In the experiment with human taste (compound alone at 20 ppm, 121 subjects), the “saltiness of its own (saltiness intensity rating)” value is recorded as “almost no saltiness of its own”. For the same molecule, the average bitterness intensity in the experiment with human taste (compound alone at 20 ppm, data not shown) amounted to 3.
